The results in this text go back to patent publication US6897219B2, “Heteroaryl diazacycloalkanes, their preparation and use” (priority 1997, dated 2005).

pIC50: −log10 of the molar value. Counter-ions that a name gives are not always drawn.

Sequence of nAChRs comprised of α4 and β2 subunits (P09483 31-630): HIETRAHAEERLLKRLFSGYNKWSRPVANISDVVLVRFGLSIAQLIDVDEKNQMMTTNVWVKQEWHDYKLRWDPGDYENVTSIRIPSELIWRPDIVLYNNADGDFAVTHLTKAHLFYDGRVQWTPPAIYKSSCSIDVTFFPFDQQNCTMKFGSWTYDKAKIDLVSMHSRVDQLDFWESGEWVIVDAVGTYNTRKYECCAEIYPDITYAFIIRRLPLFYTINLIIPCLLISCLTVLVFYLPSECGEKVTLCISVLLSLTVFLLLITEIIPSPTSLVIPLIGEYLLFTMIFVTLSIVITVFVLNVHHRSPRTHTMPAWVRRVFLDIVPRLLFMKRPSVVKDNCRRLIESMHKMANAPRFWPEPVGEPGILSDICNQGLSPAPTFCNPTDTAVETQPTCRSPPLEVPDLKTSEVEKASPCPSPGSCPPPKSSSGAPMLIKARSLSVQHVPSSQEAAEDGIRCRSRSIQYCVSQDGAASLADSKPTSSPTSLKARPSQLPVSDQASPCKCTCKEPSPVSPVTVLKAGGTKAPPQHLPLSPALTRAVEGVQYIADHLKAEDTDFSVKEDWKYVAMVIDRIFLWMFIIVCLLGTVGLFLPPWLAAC
Sequence of nAChRs comprised of α4 and β2 subunits (P12390 25-500): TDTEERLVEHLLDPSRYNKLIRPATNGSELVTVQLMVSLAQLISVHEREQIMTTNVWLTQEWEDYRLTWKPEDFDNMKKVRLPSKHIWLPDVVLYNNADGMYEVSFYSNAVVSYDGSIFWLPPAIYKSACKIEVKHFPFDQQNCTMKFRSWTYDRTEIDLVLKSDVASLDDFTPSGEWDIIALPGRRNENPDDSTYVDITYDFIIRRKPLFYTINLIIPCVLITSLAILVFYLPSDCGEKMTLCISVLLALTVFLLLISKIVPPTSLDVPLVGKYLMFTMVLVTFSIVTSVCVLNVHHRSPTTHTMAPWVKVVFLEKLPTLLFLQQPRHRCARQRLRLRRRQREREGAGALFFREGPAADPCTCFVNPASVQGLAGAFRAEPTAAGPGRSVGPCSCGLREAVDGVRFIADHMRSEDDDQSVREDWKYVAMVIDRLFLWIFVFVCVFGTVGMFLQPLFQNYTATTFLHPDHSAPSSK

The target of one data set is T1, neuronal nicotinic receptors (α4β2 subtype high affinity site) (Rattus norvegicus, UniProt P09483+P12390).
T1 construct: The forebrain (÷cerebellum) from a male Wistar rat (150-250 g) is homogenized; from tissue; host or cells: rat forebrain (without cerebellum) membrane homogenate
T1 sequence (P09483 31-630): as the sequence (P09483 31-630) above
T1 sequence (P12390 25-500): as the sequence (P12390 25-500) above
Put plainly: In vitro inhibition of 3H-epibatidin binding.
Details: not given
The procedure: The high affinity binding site for ^3H-epibatidin is most certainly binding to the α4β2 subtype of nicotinic receptors. The identity of the low affinity site is still unknown; does it represent a second nicotinic receptor or a second site in the same receptor.
Tissue preparation: Preparations are performed at 0-4° C. unless otherwise indicated. The forebrain (÷cerebellum) from a male Wistar rat (150-250 g) is homogenized for 10-20 sec in 20 ml Tris, HCl (50 mM, pH 7.4) using an Ultra-Turrax homogenizer. The tissue suspension is centrifuged at 27,000×g for 10 min. The supernatant is discarded and the pellet is washed three times by centrifugation at 27,000×g for 10 min in 20 ml fresh buffer, and the final pellet is resuspended in fresh buffer (400 ml per g of original tissue) and used for binding assays.
Assay: Aliquots of 2.0 ml homogenate are added to 0.100 ml of test solution and 0.100 ml of ^3H-epibatidin (0.3 nM, final concentration), mixed and incubated for 60 min at room temperature. Non-specific binding is determined using (−)-nicotine (30 μM, final concentration). After incubation the samples are poured directly onto Whatman GF/C glass fibre filters (presoaked in 0.1% PEI for at least 20 min) under suction and immediately washed with 2×5 ml ice-cold buffer. The amount of radioactivity on the filters is determined by conventional liquid scintillation counting. Specific binding is total binding minus non-specific binding.
`Clc1cncc(N2CCNCC2)c1` [Compound 4B, 1-(5-Chloro-3-pyridyl)-piperazine] showed a pIC50 of 5.52.

Consider `CN1CCCN(c2cncc(-c3cccnc3)c2)CC1` [Compound 19E, 4-Methyl-1-[5-(3-pyridyl)-3-pyridyl]-homopiperazine], for which the negative logarithm of the IC50 (pIC50) was 5.74. As for `CC(C)COc1cncc(N2CCCNCC2)c1` [Compound 6H, 1-[5-(2-Methyl-propoxy)-3-pyridyl]-homopiperazine], the pIC50 is 8.00. The same measure, in the same setting: to `c1cncc(N2CCCNCC2)c1` [Compound 1F, 1-(3-Pyridyl)-homopiperazine] belongs 8.30.

The same data set, now with this note: rat forebrain homogenate, 0.3 nM 3H-epibatidin, 60 min at room temperature; read-out: 3H-epibatidin IC50.
As for `COc1cncc(N2CCCN(C)CCC2)c1` [Compound 11A], the pIC50 was 5.92.

Another data set addresses nAChRs comprised of α4 and β2 subunits (Rattus norvegicus, UniProt P09483+P12390). Put plainly: In vitro inhibition of 3H-cytisine binding.
Details: not given
The procedure:
The predominant subtype with high affinity for nicotine is comprised of α4 and β2 subunits. nAChRs of the latter type can selectively be labelled by the nicotine agonist ^3H-cytisine.
Tissue Preparation: Preparations are performed at 0-4° C. unless otherwise indicated. […] The homogenate is centrifuged at 27,000×g for 10 min. The supernatant is discarded and the pellet is resuspended in fresh buffer and centrifuged a second time. The final pellet is resuspended in fresh buffer (35 ml per g of original tissue) and used for binding assays.
Assay: Aliquots of 500 μl homogenate are added to 25 μl of test solution and 25 μl of ^3H-cytisine (1 nM, final concentration), mixed and incubated for 90 min at 2° C. Non-specific binding is determined using (−)-nicotine (100 μM, final concentration). After incubation the samples are added 5 ml of ice-cold buffer and poured directly onto Whatman GF/C glass fibre filters under suction and immediately washed with 2×5 ml ice-cold buffer. The amount of radioactivity on the filters is determined by conventional liquid scintillation counting. Specific binding is total binding minus non-specific binding.
Take `CC(C)COc1cncc(N2CCCNCC2)c1` [Compound 6H, 1-[5-(2-Methyl-propoxy)-3-pyridyl]-homopiperazine]: the pIC50 is 8.70. In turn, `COc1cncc(N2CCCNC(C)CC2)c1` (stereo not shown) [Compound 11A] gave a pIC50 of 7.40. Same read-out and setting: to `c1cncc(N2CCCNCC2)c1` [Compound 1F, 1-(3-Pyridyl)-homopiperazine] belongs 8.70.

The data set is the same for the next values; noted with them: rat cerebral cortex homogenate, 1 nM 3H-cytisine, 90 min at 2° C.; read-out: 3H-cytisine IC50.
Regarding `Clc1cncc(N2CCNCC2)c1` [Compound 4B, 1-(5-Chloro-3-pyridyl)-piperazine], the pIC50 was 6.51. Turning to `CN1CCCN(c2cncc(-c3cccnc3)c2)CC1` [Compound 19E, 4-Methyl-1-[5-(3-pyridyl)-3-pyridyl]-homopiperazine], the pIC50 is 6.77.

The target in a further data set is nAChR formed by the α7 subunit isoform (Rattus norvegicus, UniProt Q05941). As to the kind of experiment: biochemical. In kind it is binding.
Sequence of nAChR formed by the α7 subunit isoform (Q05941 23-502): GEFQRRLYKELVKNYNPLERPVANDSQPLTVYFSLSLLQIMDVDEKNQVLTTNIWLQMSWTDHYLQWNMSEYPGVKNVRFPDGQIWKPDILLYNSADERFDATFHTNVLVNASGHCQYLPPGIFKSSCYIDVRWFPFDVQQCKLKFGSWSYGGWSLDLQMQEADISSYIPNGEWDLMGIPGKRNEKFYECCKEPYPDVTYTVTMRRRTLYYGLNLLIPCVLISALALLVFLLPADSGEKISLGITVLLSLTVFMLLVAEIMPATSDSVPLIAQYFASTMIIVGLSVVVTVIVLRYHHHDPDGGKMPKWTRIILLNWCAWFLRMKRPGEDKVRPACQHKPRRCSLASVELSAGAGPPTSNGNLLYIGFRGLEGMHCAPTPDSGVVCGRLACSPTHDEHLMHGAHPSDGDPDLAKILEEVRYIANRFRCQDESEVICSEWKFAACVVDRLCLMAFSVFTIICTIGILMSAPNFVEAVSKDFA
Details: not given
In turn, `Clc1cncc(N2CCNCC2)c1` [Compound 4B, 1-(5-Chloro-3-pyridyl)-piperazine] gave a pIC50 of less than 4.52. In turn, `CN1CCCN(c2cncc(-c3cccnc3)c2)CC1` [Compound 19E, 4-Methyl-1-[5-(3-pyridyl)-3-pyridyl]-homopiperazine] had a pIC50 of less than 4.52.

With `CC(C)COc1cncc(N2CCCNCC2)c1` [Compound 6H, 1-[5-(2-Methyl-propoxy)-3-pyridyl]-homopiperazine], the pIC50 is less than 4.52. For `COc1cncc(N2CCCNC(C)CC2)c1` (stereo not shown) [Compound 11A], the pIC50 is less than 4.52.

Take `CN1CCN(c2cccnc2)CC1` [Compound 1A, 4-Methyl-1-(3-pyridyl)-piperazine]: the pIC50 was 5.17.

System in another data set: not given
Experiment: not given
Details: not given
Turning to `CCN1CCCN(c2cccnc2)CC1` (as salt: fumaric acid salt), the melting point was in the range of 145.3 to 147.5 °C. Regarding `CCOc1cncc(N2CCCNCCC2)c1` (as salt: fumaric acid salt), the melting point is 162.5 to 164.5 °C. In turn, `C=COc1cncc(N2CCN(C)CC2)c1` (as salt: fumaric acid salt) displayed a melting point of 136.4 to 138.2 °C. On the same count and under the same terms, to `c1ccc(-c2cncc(N3CCNCC3)c2)cc1` (as salt: fumaric acid salt) belongs 167.5 to 168.5 °C; to `CCCOc1cncc(N2CCCN(C)CC2)c1` (as salt: fumaric acid salt) [Compound 10E, 4-Methyl-1-(5-propyloxy-3-pyridyl)-homopiperazine], 148.8 to 153.5 °C; to `CCCOc1cncc(N2CCCNCCC2)c1` (as salt: fumaric acid salt), 150 to 152 °C. For the compound `Brc1ccc(N2CCCNCC2)cn1` (as salt: fumaric acid salt) [Compound 8K, 1-(6-Bromo-3-pyridyl)-homopiperazine], the melting point is 164 to 166 °C.

Consider `Nc1cccc(N2CCCNCC2)c1` (as salt: fumaric acid salt), for which the melting point fell in the range of 165.4 to 167.7 °C.

Regarding `CC(C)COc1cncc(N2CCCNCC2)c1` (as salt: fumaric acid salt) [Compound 6H, 1-[5-(2-Methyl-propoxy)-3-pyridyl]-homopiperazine], the melting point was in the range of 121.9 to 123.3 °C. `CN1CCCN(c2cncc(OC3CCCC3)c2)CC1` (as salt: fumaric acid salt) [Compound 25E, 1-(5-Cyclopentyloxy-3-pyridyl)-4-methyl-homopiperazine] yielded a melting point of 123 to 125 °C. As to `O=S(=O)(Oc1cncc(N2CCCNCC2)c1)C(F)(F)F` (as salt: fumaric acid salt), the melting point lay in the range of 154 to 156 °C. Take `CN1CCN(c2cncc(-c3ccccc3)c2)CC1` (as salt: fumaric acid salt) [Compound 6A, 4-Methyl-1-(5-phenyl-3-pyridyl)-piperazine]: the melting point is 179 to 180 °C. `CCCCCCCOc1cncc(N2CCCNCC2)c1` (as salt: fumaric acid salt) came in with a melting point of 132.8 to 136.6 °C.

As for `Oc1cncc(N2CCCNCC2)c1` (as salt: hydrochloric acid salt), the melting point was 290 to 300 °C. Compound `C#Cc1cncc(N2CCCNCC2)c1` (as salt: fumaric acid salt) returned a melting point of 172.5 to 174 °C. Compound `CN1CCCN(c2ccc(-c3ccccc3)nn2)CC1` (as salt: fumaric acid salt) showed a melting point of 185 to 186 °C. For `CN1CCCN(c2cncc(-c3cccnc3)c2)CC1` (as salt: fumaric acid salt) [Compound 19E, 4-Methyl-1-[5-(3-pyridyl)-3-pyridyl]-homopiperazine], the melting point was 165.5 to 167.5 °C. `CCOc1cc(N2CCCNCC2)cnc1Br` (as salt: fumaric acid salt) came in with a melting point of 181.7 to 183.2 °C. `C=COc1cncc(N2CCNCC2)c1` (as salt: fumaric acid salt) showed a melting point of 136.4 to 138.2 °C.

For `CCCCCCCOc1cncc(N2CCCN(C)CC2)c1` (as salt: fumaric acid salt) [Compound 16E, 1-(5-Heptyloxy-3-pyridyl)-4-methyl-homopiperazine], the melting point lay in the range of 120.2 to 121.8 °C. Compound `CN1CCCN(c2cncc(SCc3ccccc3)c2)CC1` (as salt: fumaric acid salt) [Compound 18E, 4-Methyl-1-(5-thiobenzyl-3-pyridyl)-homopiperazine] yielded a melting point of 131 to 133 °C.

In the case of `COc1cncc(N2CCCN(C)C2)c1` (as salt: fumaric acid salt) [Compound 2M, 1-(5-Methoxy-3-pyridyl)-3-methyl-1,3-diazacyclohexane], the melting point was in the range of 149 to 151 °C. `c1ccn(-c2cncc(N3CCCNCC3)c2)c1` (as salt: fumaric acid salt) returned a melting point of 174 to 175 °C. On the same count and under the same terms, the figure for `c1ccc(-c2ccc(N3CCCNCC3)nn2)cc1` (as salt: fumaric acid salt) is 187 to 189 °C; for `c1ccc2nc(N3CCCNCC3)cnc2c1` (as salt: fumaric acid salt) [Compound 2L, 1-(2-Quinoxalinyl)-homopiperazine] it is 177 to 180 °C; for `CN1CCCN(c2ccc(Cl)nn2)CC1` (as salt: fumaric acid salt) it is 171 to 172 °C. The same measure, in the same setting: to `CCOc1cncc(N2CCNCC2)c1` (as salt: fumaric acid salt) [Compound 1D, 1-(5-Ethoxy-3-pyridyl)piperazine] belongs 160 to 161.2 °C; to `c1ccc2ncc(N3CCNCC3)cc2c1`, 87.7 to 88.5 °C; to `c1cncc(-c2cncc(N3CCCNCC3)c2)c1` (as salt: fumaric acid salt), 160 to 162 °C. The same measure, in the same setting: to `CC1CCN(c2ccc(Cl)nn2)CCCN1` (stereo not shown) (as salt: fumaric acid salt) belongs 166 to 168 °C; to `COc1cc(N2CCCNCC2)cnc1OC` (as salt: fumaric acid salt), 150 to 152 °C; to `Clc1ccc(N2CCCNCC2)nn1` (as salt: fumaric acid salt) [Compound 1K, 1-(6-Chloro-3-pyridazinyl)-homopiperazine], 165 to 166 °C. The compound `CN1CCCN(c2cccc([N+](=O)[O-])c2)CC1` displayed a melting point of 163.1 to 164.4 °C. Same read-out and setting: to `COc1cncc(N2CCN(C)C2)c1` (as salt: fumaric acid salt) [Compound 1M, 1-(5-Methoxy-3-pyridyl)-3-methyl-imidazolidine] belongs 139 to 142 °C. In turn, `CCCCOc1cncc(N2CCNCC2)c1` (as salt: fumaric acid salt) [Compound 2D, 1-(5-Butoxy-3-pyridyl)piperazine] yielded a melting point of 149.4 to 151.7 °C. In the case of `CCCCOc1cncc(N2CCN(C)CC2)c1` (as salt: fumaric acid salt), the melting point lay in the range of 136.9 to 139.2 °C.

Consider `COCCOc1cncc(N2CCCNCC2)c1` (as salt: fumaric acid salt) [Compound 5H, 1-(5-Methoxyethoxy-3-pyridyl)-homopiperazine], for which the melting point lay within 126 to 127 °C.

Consider `CCCCCOc1cncc(N2CCCNCC2)c1` (as salt: fumaric acid salt), for which the melting point lay in the range of 155.5 to 156.7 °C. In turn, `Clc1cncc(N2CCCNCC2)n1` (as salt: fumaric acid salt) [Compound 3K, 1-(6-Chloro-2-pyrazinyl)-homopiperazine] came in with a melting point of 180 to 181 °C. As to `CCCCCCOc1cncc(N2CCCNCC2)c1` (as salt: fumaric acid salt), the melting point fell in the range of 149.5 to 151.8 °C.

What is called pIC50 is the negative decadic logarithm of the IC50, by convention in mol/L. By melting point is commonly meant the temperature, or range, at which the solid turns liquid.
